According to US20240336654A1, “ANTIMICROBIAL PEPTIDOMIMETICS” (SPEXIS AG, priority 2021, published 2024):
Where a SMILES comes first, the peptide text is derived from it. Bridges are numbered along the chain shown (N, C = ends). [ ]: non-standard residue; d: D form. The star is where a group is joined. Val(Nα-amidino) = CC(C)[C@H](NC(=N)N)C(=O)*; Hyp = O=C(O)[C@@H]1C[C@@H](O)CN1; Cit = NC(=O)NCCC[C@H](N)C(=O)O; Pen = CC(C)(S)[C@H](N)C(=O)O; dDab = NCC[C@@H](N)C(=O)O; Dab = NCC[C@H](N)C(=O)O

Tests used:
Format in all cases: cell-based
[1] = system: human red blood cells (hRBC); conditions: red cells of human, 1 h, 200 μg/mL
Procedure, shortened: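 Percent hemolysis derived from OD540 of supernatants relative to full lysis by 2.5% Triton X-100 (PBS baseline). Washed fresh human erythrocytes (20% v/v) were exposed to 200 μg/mL peptide for 1 h at 37 °C with shaking.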

[2] = system: Escherichia coli MCR-1 Af 45; conditions: MCR-1 Af 45
Procedure, shortened: (§1)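 CLSI broth microdilution, slightly modified: cation-adjusted Mueller-Hinton II broth with about 5×10^5 CFU/mL from a 0.5 McFarland suspension, and two-fold serial peptide dilutions with Polysorbate 80 at 0.002% final. MIC (μg/mL) was the lowest concentration with no visible growth after 18-20 hours at 35° C.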

[3] = system: Klebsiella pneumoniae SSI3010; conditions: SSI3010
Procedure, shortened: as §1

[4] = system: Escherichia coli ATCC 25922; conditions: ATCC 25922
Procedure, shortened: as §1

Row | Compound | Hemolysis at 0.2 g/L [1] [%] | Escherichia coli MCR-1 Af45 MIC [2] [µg/mL] | Klebsiella pneumoniae SSI3010 MIC [3] [µg/mL] | Escherichia coli ATCC 25922 MIC [4] [µg/mL]
1 | CC[C@H](C)[C@H](NC(=O)[C@@H]1C[C@@H](O)CN1C(=O)[C@@H](NC(=N)N)C(C)C)C(=O)N[C@@H]1C(=O)N[C@@H](Cc2ccc(O)cc2)C(=O)N[C@@H](CO)C(=O)N[C@@H](CC(N)=O)C(=O)N[C@@H](CCCNC(=N)N)C(=O)N[C@H](CCN)C(=O)N[C@@H]([C@@H](C)O)C(=O)N[C@H](CCN)C(=O)N[C@@H](CO)C(=O)N[C@@H](CCN)C(=O)N[C@@H](CCN)C(=O)N[C@H](C(=O)N[C@@H](Cc2ccc(O)cc2)C(=O)O)CSSC1(C)C [Example 104, Gua-Val-Hyp-Ile-Pen-Tyr-Ser-Asn-Arg-^DDab-Thr-^DDab-Ser-Dab-Dab-Cys-Tyr] ({Val(Nα-amidino)}-[Hyp]I[Pen]YSNR[dDab]T[dDab]S[Dab][Dab]CY-OH; disulfide 3-14) | <1 | 0.25 | 0.25 | 0.25
2 | CC[C@H](C)[C@H](NC(=O)[C@@H]1C[C@@H](O)CN1C(=O)[C@@H](NC(=N)N)C(C)C)C(=O)N[C@@H]1C(=O)N[C@@H](Cc2ccc(O)cc2)C(=O)N[C@@H]([C@@H](C)O)C(=O)N[C@@H](CC(N)=O)C(=O)N[C@@H](CCCNC(=N)N)C(=O)N[C@@H](CCN)C(=O)N[C@@H]([C@@H](C)O)C(=O)N[C@H](CCN)C(=O)N[C@@H](CC(N)=O)C(=O)N[C@@H](CCN)C(=O)N[C@@H](CCN)C(=O)N[C@H](C(=O)N[C@@H](Cc2ccc(O)cc2)C(=O)O)CSSC1(C)C [Example 105, Gua-Val-Hyp-Ile-Pen-Tyr-Thr-Asn-Arg-Dab-Thr-^DDab-Asn-Dab-Dab-Cys-Tyr] ({Val(Nα-amidino)}-[Hyp]I[Pen]YTNR[Dab]T[dDab]N[Dab][Dab]CY-OH; disulfide 3-14) | <1 | 0.125 | 0.25 | 0.125
3 | CC[C@H](C)[C@H](NC(=O)[C@@H]1C[C@@H](O)CN1C(=O)[C@@H](NC(=N)N)C(C)C)C(=O)N[C@@H]1C(=O)N[C@@H](Cc2ccc(O)cc2)C(=O)N[C@@H](CO)C(=O)N[C@@H](CC(N)=O)C(=O)N[C@@H](CCCNC(=N)N)C(=O)N[C@@H](CCN)C(=O)N[C@@H]([C@@H](C)O)C(=O)N[C@H](CCN)C(=O)N[C@@H](CCCNC(N)=O)C(=O)N[C@@H](CCN)C(=O)N[C@@H](CCN)C(=O)N[C@H](C(=O)N[C@@H](Cc2ccc(O)cc2)C(=O)O)CSSC1(C)C [Example 106, Gua-Val-Hyp-Ile-Pen-Tyr-Ser-Asn-Arg-Dab-Thr-^DDab-Cit-Dab-Dab-Cys-Tyr] ({Val(Nα-amidino)}-[Hyp]I[Pen]YSNR[Dab]T[dDab][Cit][Dab][Dab]CY-OH; disulfide 3-14) | <1 | 0.125 | 0.25 | 0.125
4 | CC[C@H](C)[C@H](NC(=O)[C@@H]1C[C@@H](O)CN1C(=O)[C@@H](NC(=N)N)C(C)C)C(=O)N[C@@H]1C(=O)N[C@@H](Cc2ccc(O)cc2)C(=O)N[C@@H](CO)C(=O)N[C@@H](CC(N)=O)C(=O)N[C@@H](CCCNC(=N)N)C(=O)N[C@@H](CCN)C(=O)N[C@@H]([C@@H](C)O)C(=O)N[C@H](CCN)C(=O)N[C@@H](CC(N)=O)C(=O)N[C@@H](CCN)C(=O)N[C@@H](CCN)C(=O)N[C@H](C(=O)N[C@@H](Cc2ccc(O)cc2)C(=O)O)CSSC1(C)C [Example 107, Gua-Val-Hyp-Ile-Pen-Tyr-Ser-Asn-Arg-Dab-Thr-^DDab-Asn-Dab-Dab-Cys-Tyr] ({Val(Nα-amidino)}-[Hyp]I[Pen]YSNR[Dab]T[dDab]N[Dab][Dab]CY-OH; disulfide 3-14) | <1 | 0.125 | 0.25 | 0.125
